Reference: PubChem BioAssay (NCI)
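Compound exposure: 48 hours, 5 concentrations, 96-well plates. GI50: concentration for 50% inhibition of growth. The concentration for full growth arrest is given as TGI.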

What was measured:
Assay in all cases: inhibition of tumour cell growth, NCI panel, 48 h
A549 NSCLC = tested on: A549 NSCLC
EKVX NSCLC = tested on: EKVX NSCLC
HOP-62 NSCLC = tested on: HOP-62 NSCLC
HOP-92 NSCLC = tested on: HOP-92 NSCLC
K-562 leukemia = tested on: K-562 leukemia
MALME-3M melanoma = tested on: MALME-3M melanoma
SK-MEL-28 melanoma = tested on: SK-MEL-28 melanoma
SR leukemia = tested on: SR leukemia
TK-10 renal = tested on: TK-10 renal
NCI/ADR-RES ovarian = tested on: NCI/ADR-RES ovarian

SMILES | TGI (A549 NSCLC) | TGI (EKVX NSCLC) | TGI (HOP-62 NSCLC) | TGI (HOP-92 NSCLC) | TGI (K-562 leukemia) | TGI (MALME-3M melanoma) | TGI (SK-MEL-28 melanoma) | TGI (SR leukemia) | TGI (TK-10 renal) | GI50 (A549 NSCLC) | GI50 (EKVX NSCLC) | GI50 (HOP-62 NSCLC) | GI50 (HOP-92 NSCLC) | GI50 (K-562 leukemia) | GI50 (NCI/ADR-RES ovarian) | TGI (NCI/ADR-RES ovarian) | GI50 (SK-MEL-28 melanoma) | GI50 (TK-10 renal) | GI50 (MALME-3M melanoma)
COc1cc(/C=C2/C(=O)N(C(=O)OCC(C)C)C(Cc3cc(OC)c(OC)c(C)c3OC)C(=O)N2Cc2ccccc2)c(OC)c(C)c1OC (stereo not drawn) | > 100 µM | > 100 µM | > 100 µM | > 100 µM | > 100 µM | > 100 µM | > 100 µM | > 100 µM | > 100 µM | – | – | – | – | – | – | – | – | – | –
COc1cc(C(=O)O[C@H](C(=O)NCCCCCNC(=O)[C@@H](OC(=O)c2cc(OC)cc3c(C)cccc23)[C@]2(C)CO2)[C@]2(C)CO2)c2cccc(C)c2c1 | 10.2 µM | 3.72 µM | 0.157 µM | 0.867 µM | > 36.3 µM | – | – | – | 2.37 µM | 0.447 µM | 0.635 µM | < 0.01 µM | 0.292 µM | 0.437 µM | 0.165 µM | 0.584 µM | 0.205 µM | 0.661 µM | –
CC(C)C1CC[C@@H](C)C[C@@]1(O)CC(N)=O (stereo partly drawn) | > 100 µM | > 100 µM | – | – | > 100 µM | > 100 µM | > 100 µM | > 100 µM | > 100 µM | – | – | – | – | – | – | – | – | – | –
C=C1C(=O)O[C@H]2[C@H]1CC/C(COC(=O)NCc1ccc(Cn3c(=O)sn(CCCl)c3=O)cc1)=C\CC[C@@]1(C)O[C@@H]21 | 29.1 µM | 5.25 µM | 31.5 µM | 3.22 µM | 5.63 µM | 3.46 µM | 3.38 µM | – | 3.43 µM | 14.2 µM | 1.99 µM | 16.3 µM | 1.5 µM | 2.07 µM | 26.3 µM | 77.8 µM | 1.74 µM | 1.77 µM | 1.72 µM
COc1ccc2n[se]nc2c1 | > 100 µM | > 100 µM | – | – | > 100 µM | > 100 µM | > 100 µM | – | > 100 µM | – | – | – | – | – | – | – | – | – | –
O=C([CH-]C(=O)c1ccccc1)c1ccccc1.O=C([CH-]C(=O)c1ccccc1)c1ccccc1.[La+3].[OH-].[OH3+] | 55.2 µM | 51.9 µM | 41.9 µM | 38.9 µM | > 100 µM | 69.5 µM | 57.2 µM | – | > 100 µM | 20.6 µM | 14.3 µM | 10.9 µM | 15.3 µM | 5.24 µM | – | – | 17.1 µM | 32.1 µM | 23 µM
COC1CC(OS(=O)(=O)c2ccc([N+](=O)[O-])cc2)C(OC(=O)c2ccccc2)C(C)O1 (stereo not drawn) | > 100 µM | – | > 100 µM | > 100 µM | > 100 µM | > 100 µM | > 100 µM | > 100 µM | > 100 µM | – | – | – | – | – | – | – | – | – | –
CN(C)CC/C(=N\Nc1ccc([N+](=O)[O-])cc1)c1ccccc1 | 26.8 µM | 29.9 µM | 28.5 µM | – | 15.9 µM | 39.9 µM | 25.3 µM | 17.2 µM | 15.3 µM | – | – | – | – | – | – | – | – | – | –
CC(C)(C)c1ccc(Oc2nccc(-c3c(-c4ccc(F)cc4)ncn3C3CCNCC3)n2)cc1 | 6.9 µM | 7.36 µM | 7.88 µM | – | 4.7 µM | 9.38 µM | 8.06 µM | – | 8.04 µM | 3.55 µM | 3.6 µM | 4.25 µM | – | 0.849 µM | 3.39 µM | 7 µM | 4.29 µM | 4.4 µM | 4.94 µM
